Assay results published in patent publication US9452154B2, “Methods for treating HCV” (Gilead Sciences, Inc., priority 2010, dated 2016).
Several values for one entry are separate records, joined by “and”; a condition that tells them apart may be missing. Identical values can stand only once. Like-named read-outs stand apart in the source and are kept apart here.

What was measured:
HCV genotype 1a replicon [1] = experiment: Biological Example 3: HCV genotype 1a replicon assay, EC50; assay type: cell-based; settings: Hepatitis C virus, 72 h, 3 days, read-out: EC50
[2] = Biological Example 3: cytotoxicity (calcein AM), CC50; assay type: cell-based; settings: human, Huh-7 cells carrying a HCV genotype 1a replicon; HCV genotype 1a replicon cells; calcein AM
GT-1b Huh-lunet cells = experiment: Biological Example 4: antiviral combination studies with Compound 5 (MacSynergy II); assay type: cell-based, HCV; settings: in combination with Compound 5, 1b replicon cells
HCV 1b replicon system = experiment: Biological Example 5: antiviral combination studies with Compound 6 (MacSynergy II); assay type: cell-based; settings: in combination with Compound 6
[3] = test system: Genotype 1b replicon cells; experiment: Biological Example 6: compound concentration required to suppress replicon RNA by 1-1.5 log over 6 days (QRT-PCR); assay type: cell-based, HCV; settings: 6 day assay
Method: Flasks were incubated at 37° C., media and compounds were refreshed every two days. After 6 days of incubation the replicon cells were collected for RNA extraction and replicon RNA QRT-PCR analysis.

[4] = test system: NS3 GT1a mutant replicons; assay type: cell-based, HCV
[5] = test system: NS3 GT1b mutant replicons; assay type: cell-based, HCV
[6] = test system: Genotype 1b replicon cells; experiment: Biological Example 6: compound combination replicon cure assay; settings: after 6 days treatment, G418 for 14 days; Compound 6 4 pM, Compound 4 1000 nM, Compound 1 10 nM, Compound 3 26.25 nM
[7] = test system: Huh-7 cells carrying a HCV genotype 1a replicon; experiment: Biological Example 3: cytotoxicity in combination studies (MacSynergy II); settings: in combination with Compound 4
HCV genotype 1a replicon [8] = experiment: Biological Example 3: antiviral combination studies with Compound 4 (MacSynergy II); settings: in combination with Compound 4
HCV 1b RLuc = experiment: microbe, parasite or virus in culture; assay type: cell-based; settings: Hepatitis C virus, read-out: antiviral potency [EC50]
[9] = test system: GT1b and GT1a mutant replicons; experiment: Biological Example 8: summary of cross resistance of mutant replicons; assay type: cell-based, HCV; settings: all single NS3 PI-resistant mutants
Huh-luc replicon cells = experiment: Biological Example 5: cellular cytotoxicity (CellTiter-Glo); settings: highest concentrations tested (column Concentration(s)); relative to untreated controls
Method: Replicon cells were seeded and treated with drugs as described for the antiviral combination studies above. After three day incubation at 37° C., the culture media was removed and cells were lysed and assayed for cytotoxicity using a CellTiter-Glo Luminescent Cell Viability Assay (Promega) according to the manufacturer's instructions. Relative Light Units were converted into percentages relative to the untreated controls (defined as 100%).

[10] = Drug-drug interaction: exposure on co-administration with Compound 2
[11] = mutant R155K + Y488H (first line, r20)
[12] = mutant R155K + Y488H (second line, r26)

## CC[C@@H]1C[C@]1(NC(=O)[C@@H]1C[C@@H](Oc2cc(-c3csc(NC(C)C)n3)nc3c(Cl)c(OCCN4CCOCC4)ccc23)CC1C(=O)[C@@H](NC(=O)O[C@@H]1C[C@@H]2C[C@@H]2C1)C(C)(C)C)C(=O)O (some centres unmarked) [Compound 3]
HCV genotype 1a replicon [1]
  EC50: 49 ± 18 nM
[2]
  CC50 at 3 days: > 22200 nM
GT-1b Huh-lunet cells
  Antagonism Volume: −2 ± 2 nM^2
  Interaction: Additive
  Synergy Volume: 19 ± 13 nM^2
HCV 1b replicon system
  Antagonism Volume: −0.1 ± 0.2 nM^2
  Interaction: Strong Synergy
  Synergy Volume: 132 nM^2 and 132 ± 44 nM^2
[3]
  Compound concentration able to induce replicon RNA 1-1.5 log drop: 26.25 nM
[4]; mutant A156T
  fold change in EC50 vs wild-type GT1a: >141 fold
[4]; mutant D168A
  fold change in EC50 vs wild-type GT1a: >300 fold
[4]; mutant D168E
  fold change in EC50 vs wild-type GT1a: 25.1 fold
[4]; mutant D168G
  fold change in EC50 vs wild-type GT1a: >138 fold
[4]; mutant D168H
  fold change in EC50 vs wild-type GT1a: >250 fold
[4]; mutant D168N
  fold change in EC50 vs wild-type GT1a: 20.5 fold
[4]; mutant D168V
  fold change in EC50 vs wild-type GT1a: >156 fold
[4]; mutant D168Y
  fold change in EC50 vs wild-type GT1a: >175 fold
[4]; mutant R155I
  fold change in EC50 vs wild-type GT1a: 0.9 fold
[4]; mutant R155K
  fold change in EC50 vs wild-type GT1a: >150 fold
[4]; mutant R155K + L31M
  fold change in EC50 vs wild-type GT1a: >100 fold
[4]; mutant R155K + L31M + Y448H
  fold change in EC50 vs wild-type GT1a: >145 fold
[4]; mutant R155K + M28T
  fold change in EC50 vs wild-type GT1a: >100 fold
[4]; mutant R155K + M28T + Y448H
  fold change in EC50 vs wild-type GT1a: 89.0 fold
[4]; mutant R155K + Q30H + Y448H
  fold change in EC50 vs wild-type GT1a: >130 fold
[4]; mutant R155K + Q30R
  fold change in EC50 vs wild-type GT1a: >100 fold
[4]; mutant R155K + Y93H
  fold change in EC50 vs wild-type GT1a: >100 fold
[4]; [11]
  fold change in EC50 vs wild-type GT1a: >130 fold
[4]; [12]
  fold change in EC50 vs wild-type GT1a: >100 fold
[4]; mutant R155M
  fold change in EC50 vs wild-type GT1a: 1.5 fold
[4]; mutant R155S
  fold change in EC50 vs wild-type GT1a: 4.0 fold
[4]; mutant R155T
  fold change in EC50 vs wild-type GT1a: 2.3 fold
[4]; mutant R155W
  fold change in EC50 vs wild-type GT1a: 32.1 fold
[4]; mutant R155k + Q30H
  fold change in EC50 vs wild-type GT1a: >100 fold
[5]; mutant R155L
  fold change in EC50 vs wild-type GT1b: 1.2 fold and 0.9 fold
[6]
  Uncured colony number: 989
[7]
  Antagonism Volume (cytotoxicity): 0 ± 0 nM^2%
  Interaction (cytotoxicity): Additivity (Additivity: ≦25 and >−25 nM^2%)
  Synergy Volume (cytotoxicity): 3 ± 5 nM^2%
HCV genotype 1a replicon [8]
  Antagonism Volume: −3 ± 2 nM^2%
  Synergy Volume: 26 ± 6 nM^2%

## COC(=O)N[C@H](C(=O)N1CC2(CC2)C[C@H]1c1ncc(-c2ccc3c(c2)C(F)(F)c2cc(-c4ccc5nc([C@@H]6[C@H]7CC[C@H](C7)N6C(=O)[C@@H](NC(=O)OC)C(C)C)[nH]c5c4)ccc2-3)[nH]1)C(C)C [Compound 6, (1-{3-[6-(9,9-Difluoro-7-{2-[5-(2-methoxycarbonylamino-3-methyl-butyryl)-5-aza-spiro[2.4]hept-6-yl]-3H-imidazol-4-yl}-9H-fluoren-2-yl)-1H-benzoimidazol-2-yl]-2-aza-bicyclo[2.2.1]heptane-2-carbonyl}-2-methyl-propyl)-carbamic acid methyl ester]
HCV 1b RLuc
  EC50: 0.0045 nM
HCV genotype 1a replicon [1]
  EC50: 0.033 ± 0.011 nM
[2]
  CC50 at 3 days: > 44400 nM
GT-1b Huh-lunet cells
  Antagonism Volume: 0 ± 0 nM^2
  Synergy Volume: 34 ± 19 nM^2
[3]
  Compound concentration able to induce replicon RNA 1-1.5 log drop: 0.004 nM
[4]; mutant A156T
  fold change in EC50 vs wild-type GT1a: 0.2 fold
[4]; mutant D168A
  fold change in EC50 vs wild-type GT1a: 1.1 fold
[4]; mutant D168E
  fold change in EC50 vs wild-type GT1a: 1.3 fold
[4]; mutant D168G
  fold change in EC50 vs wild-type GT1a: 0.8 fold
[4]; mutant D168H
  fold change in EC50 vs wild-type GT1a: 1.1 fold
[4]; mutant D168N
  fold change in EC50 vs wild-type GT1a: 1.2 fold
[4]; mutant D168V
  fold change in EC50 vs wild-type GT1a: 1.2 fold
[4]; mutant D168Y
  fold change in EC50 vs wild-type GT1a: 0.8 fold
[4]; mutant R155I
  fold change in EC50 vs wild-type GT1a: 0.5 fold
[4]; mutant R155K
  fold change in EC50 vs wild-type GT1a: 0.6 fold
[4]; mutant R155K + L31M
  fold change in EC50 vs wild-type GT1a: 96.9 fold
[4]; mutant R155K + L31M + Y448H
  fold change in EC50 vs wild-type GT1a: >330 fold
[4]; mutant R155K + M28T
  fold change in EC50 vs wild-type GT1a: 12.3 fold
[4]; mutant R155K + M28T + Y448H
  fold change in EC50 vs wild-type GT1a: 53.0 fold
[4]; mutant R155K + Q30H + Y448H
  fold change in EC50 vs wild-type GT1a: 55.0 fold
[4]; mutant R155K + Q30R
  fold change in EC50 vs wild-type GT1a: 85.3 fold
[4]; mutant R155K + Y93H
  fold change in EC50 vs wild-type GT1a: >3000 fold
[4]; [11]
  fold change in EC50 vs wild-type GT1a: 1.1 fold
[4]; [12]
  fold change in EC50 vs wild-type GT1a: 0.5 fold
[4]; mutant R155M
  fold change in EC50 vs wild-type GT1a: 0.3 fold
[4]; mutant R155S
  fold change in EC50 vs wild-type GT1a: 0.3 fold
[4]; mutant R155T
  fold change in EC50 vs wild-type GT1a: 0.3 fold
[4]; mutant R155W
  fold change in EC50 vs wild-type GT1a: 0.7 fold
[4]; mutant R155k + Q30H
  fold change in EC50 vs wild-type GT1a: 49.4 fold
[5]; mutant A156D
  fold change in EC50 vs wild-type GT1b: 0.4 fold
[5]; mutant A156G
  fold change in EC50 vs wild-type GT1b: 0.9 fold
[5]; mutant A156T
  fold change in EC50 vs wild-type GT1b: 0.4 fold
[5]; mutant A156V
  fold change in EC50 vs wild-type GT1b: 0.4 fold
[5]; mutant D168A
  fold change in EC50 vs wild-type GT1b: 0.8 fold
[5]; mutant D168E
  fold change in EC50 vs wild-type GT1b: 1.0 fold
[5]; mutant D168E + L31V + Y448H
  fold change in EC50 vs wild-type GT1b: >210 fold
[5]; mutant D168E + Y93H + Y448H
  fold change in EC50 vs wild-type GT1b: >613 fold
[5]; mutant D168E + Y448H
  fold change in EC50 vs wild-type GT1b: 0.7 fold
[5]; mutant D168G
  fold change in EC50 vs wild-type GT1b: 0.6 fold
[5]; mutant D168H
  fold change in EC50 vs wild-type GT1b: 1.2 fold
[5]; mutant D168H + C445F
  fold change in EC50 vs wild-type GT1b: 0.3 fold
[5]; mutant D168L + C445F
  fold change in EC50 vs wild-type GT1b: 0.4 fold
[5]; mutant D168N
  fold change in EC50 vs wild-type GT1b: 0.9 fold
[5]; mutant D168T
  fold change in EC50 vs wild-type GT1b: 0.8 fold
[5]; mutant D168V
  fold change in EC50 vs wild-type GT1b: 0.9 fold
[5]; mutant D168V + C445F
  fold change in EC50 vs wild-type GT1b: 0.4 fold
[5]; mutant D168V + L31V + Y448H
  fold change in EC50 vs wild-type GT1b: >126 fold
[5]; mutant D168V + Y93H + Y448H
  fold change in EC50 vs wild-type GT1b: >664 fold
[5]; mutant D168V + Y448H
  fold change in EC50 vs wild-type GT1b: 0.5 fold
[5]; mutant D168Y
  fold change in EC50 vs wild-type GT1b: 0.7 fold
[5]; mutant L31V + D168E
  fold change in EC50 vs wild-type GT1b: 228.7 fold
[5]; mutant L31V + D168V
  fold change in EC50 vs wild-type GT1b: 117.5 fold
[5]; mutant R155C
  fold change in EC50 vs wild-type GT1b: 0.9 fold
[5]; mutant R155G
  fold change in EC50 vs wild-type GT1b: 0.7 fold
[5]; mutant R155K
  fold change in EC50 vs wild-type GT1b: 2.3 fold
[5]; mutant R155L
  fold change in EC50 vs wild-type GT1b: 0.7 fold
[5]; mutant R155Q
  fold change in EC50 vs wild-type GT1b: 0.7 fold
[5]; mutant R155W
  fold change in EC50 vs wild-type GT1b: 0.4 fold
[5]; mutant Y93H + D168E
  fold change in EC50 vs wild-type GT1b: >570 fold
[5]; mutant Y93H + D168V
  fold change in EC50 vs wild-type GT1b: >1140 fold
[9]
  susceptibility of mutants: full susceptibility
Huh-luc replicon cells
  Cell Viability %: 99 ± 1%
[10]
  increase of exposure when combined with Compound 2: approximately 5 ×
[7]
  Antagonism Volume (cytotoxicity): 0 ± 0 nM^2%
  Interaction (cytotoxicity): Additivity (Additivity: ≦25 and >−25 nM^2%)
  Synergy Volume (cytotoxicity): 8 ± 4 nM^2%
HCV genotype 1a replicon [8]
  Antagonism Volume: −7 ± 7 nM^2%
  Interaction: Additivity (Additivity: ≦25 and >−25 nM^2%)
  Synergy Volume: 19 ± 17 nM^2%
